Reference: patent US20150175530A1, “ANTIBACTERIAL AGENTS” (priority 2012, published 2015)
Converted amounts (≈) assume the structure as drawn. Like-named read-outs stand apart in the source and are kept apart here.

Tests used:
[1] = test system: bacterial isolates (clinical isolates and ATCC quality control strains); assay: Minimum Inhibitory Concentrations (MICs) by broth microdilution (CLSI susceptibility testing); type: cell-based
Method: Bacterial isolates were cultivated from −70° C. frozen stocks by overnight passages at 35° C. in ambient air on Mueller-Hinton agar (Beckton Dickinson, Franklin Lakes, N.J.). Clinical isolates tested were obtained from various geographically diverse hospitals in the US and abroad (Focus Diagnostics, Herndon, Va. and JMI, North Liberty, Iowa). Quality control strains were from the American Type Culture Collection (ATCC; Rockville, Md.).
Minimum Inhibitory Concentrations (MICs) were determined by the broth microdilution method in accordance with the Clinical and Laboratory Standards Institute (CLSI) guidelines. In brief, organism suspensions were adjusted to a 0.5 McFarland standard to yield a final inoculum between 3×10^5 and 7×10^5 colony-forming units (CFU)/mL. Drug dilutions and inocula were made in sterile, cation adjusted Mueller-Hinton Broth (Beckton Dickinson). An inoculum volume of 100 μL was added to wells containing 100 μL of broth with 2-fold serial dilutions of drug. All inoculated microdilution trays were incubated in ambient air at 35° C. for 18-24 h. Following incubation, the lowest concentration of the drug that prevented visible growth (OD600 nm<0.05) was recorded as the MIC. Performance of the assay was monitored by the use of laboratory quality-control strains and levofloxacin, a compound with a defined MIC spectrum, in accordance with CLSI guidelines.

[2] = test system: 3 P. aeruginosa strains (APAE001, APAE002, APAE006); assay: Protein binding: fold change in MIC in the presence of 2% HSA and 0.05% AGP, Geomean of 3 strains; type: cell-based, Pseudomonas aeruginosa; conditions: MIC in the presence of 2% HSA and 0.05% AGP divided by MIC in the absence; Geomean of 3 P. aeruginosa strains (APAE001, APAE002, APAE006)
Method: The effect of human serum albumin (HSA) and α-1-acid glycoprotein (AGP) from human plasma, which are known to nonspecifically bind to certain antibiotics and thereby reduce their activity (Banéres-Roquet et al. 2009 “Use of a Surface Plasmon Resonance Method to Investigate Antibiotic and Plasma Protein Interactions” Antimicrob. Agents and Chemother. 53(4):1528-1531), was assessed against 3 P. aeruginosa strains (APAE001, APAE002, APAE006). APAE001 is Pseudomonas aeruginosa ATCC27853; APAE002 is a wildtype lab strain of Pseudomonas aeruginosa known as PAM1020 or PA01. APAE006 is a strain of […]/PA01 with efflux deletions: delta mexAB-oprM::CM delta CD-oprJ::Gm delta mexEF-oprN::omega Hg. Lomovskaya, 0 et al. 1999. Use of a Genetic Approach To Evaluate the Consequences of Inhibition of Efflux Pumps in P aeruginosa. Antimicrob. Agents Chemother. 43: 1340-1346.
The standard procedure described in Susceptibility Testing was utilized with one adjustment, specifically 2% HSA and 0.05% AGP were added to the cation adjusted Mueller-Hinton Broth. The MIC for each strain of interest was then assessed in the presence and absence of HSA/AGP. Following MIC determination, the fold change in MIC was determined for each individual strain by dividing the MIC in the presence of HSA/AGP by the MIC in the absence of HSA/AGP. The protein binding Geomean was then calculated using these 3 values.

[3] = APAE1096 is a clinical isolate, broth microdilution, read-out: Minimum Inhibitory Concentrations (MICs) APAE1096
[4] = Pseudomonas aeruginosa, APAE002 is a wildtype lab strain of Pseudomonas aeruginosa known as PAM1020 or PA01, broth microdilution, read-out: Minimum Inhibitory Concentrations (MICs) APAE002
[5] = Pseudomonas aeruginosa, ATCC27853, APAE001 is Pseudomonas aeruginosa ATCC27853, broth microdilution, read-out: Minimum Inhibitory Concentrations (MICs) APAE001
[6] = Pseudomonas aeruginosa, ATCC27853, read-out: Minimum Inhibitory Concentrations (MICs) APAE001
[7] = Pseudomonas aeruginosa, read-out: Minimum Inhibitory Concentrations (MICs) APAE002
[8] = read-out: Minimum Inhibitory Concentrations (MICs) APAE1096

| SMILES | MIC [1, 3] | MIC [1, 4] | MIC [1, 5] | Protein Binding PB (Geomean of fold change in MIC) [2] | MIC [1, 6] | MIC [1, 7] | MIC [1, 8] |
| --- | --- | --- | --- | --- | --- | --- | --- |
| CC(C)(N)[C@H](NC(=O)c1ccc(C#CC#C[C@H]2CC[C@](O)(CO)CC2)cc1)C(=O)NO [Compound 33B, N—((S)-3-amino-1-(hydroxyamino)-3-methyl-1-oxobutan-2-yl)-4-(((1R,4S)-4-hydroxy-4-(hydroxymethyl)cyclohexyl)buta-1,3-diynyl)benzamide] | 1 to 8 µg/mL (≈ 2.34 to 18.7 µM) | 1 to 8 µg/mL (≈ 2.34 to 18.7 µM) | < 1 µg/mL | 5.1 | – | – | – |
| CC(C)(O)[C@H](NC(=O)c1ccc(C#CC#CCCO)cc1)C(=O)NO [Compound 34, (S)—N-(3-hydroxy-1-(hydroxyamino)-3-methyl-1-oxobutan-2-yl)-4-(6-hydroxyhexa-1,3-diynyl)benzamide] | 1 to 8 µg/mL (≈ 2.9 to 23.2 µM) | < 1 µg/mL | < 1 µg/mL | 2.8 | – | – | – |
| C[C@@H](N)[C@H](NC(=O)c1ccc(C#CC#CCCO)cc1)C(=O)NO [Compound 35, N-((2S,3R)-3-amino-1-(hydroxyamino)-1-oxobutan-2-yl)-4-(6-hydroxyhexa-1,3-diyn-1-yl)benzamide] | 1 to 8 µg/mL (≈ 3.04 to 24.3 µM) | < 1 µg/mL | < 1 µg/mL | 2.0 | – | – | – |
| CC(C)(N)[C@H](NC(=O)c1ccc(C#CC#CC[C@H](O)CO)cc1)C(=O)NO [Compound 36, N—((S)-3-amino-1-(hydroxyamino)-3-methyl-1-oxobutan-2-yl)-4-((S)-6,7-dihydroxyhepta-1,3-diyn-1-yl)benzamide] | – | – | – | 2.3 | < 1 µg/mL | < 1 µg/mL | 1 to 8 µg/mL (≈ 2.68 to 21.4 µM) |
| CC(C)(N)[C@H](NC(=O)c1ccc(C#CC#CC[C@@H](O)CO)cc1)C(=O)NO [Compound 37, N—((S)-3-amino-1-(hydroxyamino)-3-methyl-1-oxobutan-2-yl)-4-((R)-6,7-dihydroxyhepta-1,3-diyn-1-yl)benzamide] | – | – | – | 1.4 | 1 to 8 µg/mL (≈ 2.68 to 21.4 µM) | 1 to 8 µg/mL (≈ 2.68 to 21.4 µM) | 1 to 8 µg/mL (≈ 2.68 to 21.4 µM) |
| C[C@@H](O)[C@H](NC(=O)c1ccc(C#CC#CCCO)cc1)C(=O)NO [Compound 38, N-((2S,3R)-3-hydroxy-1-(hydroxyamino)-1-oxobutan-2-yl)-4-(6-hydroxyhexa-1,3-diyn-1-yl)benzamide] | 1 to 8 µg/mL (≈ 3.03 to 24.2 µM) | < 1 µg/mL | 1 to 8 µg/mL (≈ 3.03 to 24.2 µM) | 2 | – | – | – |
| CC(C#CC#Cc1ccc(C(=O)N[C@H](C(=O)NO)C(C)(C)N)cc1)CO (stereo partly drawn) [Compound 39, N—((S)-3-amino-1-(hydroxyamino)-3-methyl-1-oxobutan-2-yl)-4-(6-hydroxy-5-methylhexa-1,3-diyn-1-yl)benzamide] | 1 to 8 µg/mL (≈ 2.8 to 22.4 µM) | < 1 µg/mL | < 1 µg/mL | 2.8 | – | – | – |
| C[C@H](O)C#CC#Cc1ccc(C(=O)N[C@H](C(=O)NO)C(C)(C)O)cc1 [Compound 40, N—((S)-3-hydroxy-1-(hydroxyamino)-3-methyl-1-oxobutan-2-yl)-4-((S)-5-hydroxyhexa-1,3-diyn-1-yl)benzamide] | 1 to 8 µg/mL (≈ 2.9 to 23.2 µM) | < 1 µg/mL | 1 to 8 µg/mL (≈ 2.9 to 23.2 µM) | 2.6 | – | – | – |
| C[C@H](O)C#CC#Cc1ccc(C(=O)N[C@H](C(=O)NO)[C@@H](C)N)cc1 [Compound 41, N-((2S,3R)-3-amino-1-(hydroxyamino)-1-oxobutan-2-yl)-4-((S)-5-hydroxyhexa-1,3-diyn-1-yl)benzamide] | 1 to 8 µg/mL (≈ 3.04 to 24.3 µM) | < 1 µg/mL | < 1 µg/mL | 2 | – | – | – |
| C[C@H](O)C#CC#Cc1ccc(C(=O)N[C@H](C(=O)NO)[C@@H](C)O)cc1 [Compound 42, N-((2S,3R)-3-hydroxy-1-(hydroxyamino)-1-oxobutan-2-yl)-4-((S)-5-hydroxyhexa-1,3-diyn-1-yl)benzamide] | 8 to 16 µg/mL (≈ 24.2 to 48.4 µM) | 1 to 8 µg/mL (≈ 3.03 to 24.2 µM) | 1 to 8 µg/mL (≈ 3.03 to 24.2 µM) | 2.6 | – | – | – |
| CNC(C)(C)[C@H](NC(=O)c1ccc(C#CC#CC[C@H](O)CO)cc1)C(=O)NO [Compound 43, 4-((S)-6,7-dihydroxyhepta-1,3-diyn-1-yl)-N—((S)-1-(hydroxyamino)-3-methyl-3-(methylamino)-1-oxobutan-2-yl)benzamide] | 1 to 8 µg/mL (≈ 2.58 to 20.6 µM) | < 1 µg/mL | < 1 µg/mL | 1.6 | – | – | – |
| CNC(C)(C)[C@H](NC(=O)c1ccc(C#CC#CC[C@@H](O)CO)cc1)C(=O)NO [Compound 44, 4-((R)-6,7-dihydroxyhepta-1,3-diyn-1-yl)-N—((S)-1-(hydroxyamino)-3-methyl-3-(methylamino)-1-oxobutan-2-yl)benzamide] | 1 to 8 µg/mL (≈ 2.58 to 20.6 µM) | < 1 µg/mL | < 1 µg/mL | 2.0 | – | – | – |
| C[C@@H](N)[C@H](NC(=O)c1ccc(C#CC#CC(O)CO)cc1)C(=O)NO (stereo partly drawn) [Compound 45, N-((2S,3R)-3-amino-1-(hydroxyamino)-1-oxobutan-2-yl)-4-(5,6-dihydroxyhexa-1,3-diyn-1-yl)benzamide] | – | – | – | 2.0 | 1 to 8 µg/mL (≈ 2.9 to 23.2 µM) | < 1 µg/mL | 1 to 8 µg/mL (≈ 2.9 to 23.2 µM) |
| COC(C#CC#Cc1ccc(C(=O)N[C@H](C(=O)NO)C(C)(C)N)cc1)CO (stereo partly drawn) [Compound 47, N—((S)-3-amino-1-(hydroxyamino)-3-methyl-1-oxobutan-2-yl)-4-(6-hydroxy-5-methoxyhexa-1,3-diyn-1-yl)benzamide] | – | – | – | 2.6 | < 1 µg/mL | < 1 µg/mL | 1 to 8 µg/mL (≈ 2.68 to 21.4 µM) |
| CN[C@H](C)[C@H](NC(=O)c1ccc(C#CC#CCCO)cc1)C(=O)NO [Compound 48, N-((2S,3R)-1-(hydroxyamino)-3-(methylamino)-1-oxobutan-2-yl)-4-(6-hydroxyhexa-1,3-diyn-1-yl)benzamide] | 1 to 8 µg/mL (≈ 2.91 to 23.3 µM) | < 1 µg/mL | < 1 µg/mL | 2.0 | – | – | – |
| CN[C@H](C)[C@H](NC(=O)c1ccc(C#CC#C[C@H](C)O)cc1)C(=O)NO [Compound 49, N-((2S,3R)-1-(hydroxyamino)-3-(methylamino)-1-oxobutan-2-yl)-4-((S)-5-hydroxyhexa-1,3-diyn-1-yl)benzamide] | 1 to 8 µg/mL (≈ 2.91 to 23.3 µM) | < 1 µg/mL | < 1 µg/mL | 2.0 | – | – | – |
| CC(O)(C#CC#Cc1ccc(C(=O)N[C@H](C(=O)NO)C(C)(C)N)cc1)CO (stereo partly drawn) [Compound 50, N—((S)-3-amino-1-(hydroxyamino)-3-methyl-1-oxobutan-2-yl)-4-(5,6-dihydroxy-5-methylhexa-1,3-diyn-1-yl)benzamide] | 8 to 16 µg/mL (≈ 21.4 to 42.8 µM) | 1 to 8 µg/mL (≈ 2.68 to 21.4 µM) | < 1 µg/mL | 1.6 | – | – | – |
| CNC(C)(C)[C@H](NC(=O)c1ccc(C#CC#CC(O)CO)cc1)C(=O)NO (stereo partly drawn) [Compound 51, 4-(5,6-dihydroxyhexa-1,3-diyn-1-yl)-N—((S)-1-(hydroxyamino)-3-methyl-3-(methylamino)-1-oxobutan-2-yl)benzamide] | 1 to 8 µg/mL (≈ 2.68 to 21.4 µM) | < 1 µg/mL | < 1 µg/mL | 1.6 | – | – | – |
| CC(C)(N)[C@H](NC(=O)c1ccc(C#C/C=C/CC(O)CO)cc1)C(=O)NO (stereo partly drawn) [Compound 52, N—((S)-3-amino-1-(hydroxyamino)-3-methyl-1-oxobutan-2-yl)-4-((E)-6,7-dihydroxyhept-3-en-1-yn-1-yl)benzamide] | 8 to 16 µg/mL (≈ 21.3 to 42.6 µM) | 1 to 8 µg/mL (≈ 2.66 to 21.3 µM) | 1 to 8 µg/mL (≈ 2.66 to 21.3 µM) | 1.0 | – | – | – |
